From patent publication US20240228572A1 (i2o Therapeutics, Inc., priority 2020, published 2024)
pEC50: −log10 of the molar value. *1 amine or outer side, *2 acyl side, *3 side chain or, on linkers, in order; H or OH if unused. Where a SMILES comes first, the peptide text is derived from it. Bridges are numbered along the chain shown (N, C = ends). Side-chain parts run from the residue outwards. [ ]: non-standard residue; d: D form. The star is where a group is joined. C20 diacid = O=C(O)CCCCCCCCCCCCCCCCCCC(=O)*; γGlu = O=C(O)[C@H](CCC(=O)[*:2])N[*:1]; AEEA = NCCOCCOCC(=O)O; Aib = CC(C)(N)C(=O)O

Key:
[1] = target: T1, human Glucagon receptor (GCGR) (Homo sapiens, UniProt P47871); experiment: cAMP accumulation assay, CHO-K1 cells expressing human GCGR; format: cell-based; settings: mean pEC50, Table 10
T1 construct: A cDNA fragment encoding the full-length open reading frame of the human GCGR; expressed in transfected cells; host or cells: CHO-K1, pcDNA3.1+, Lipofectamine 2000
T1 sequence (P47871 26-477): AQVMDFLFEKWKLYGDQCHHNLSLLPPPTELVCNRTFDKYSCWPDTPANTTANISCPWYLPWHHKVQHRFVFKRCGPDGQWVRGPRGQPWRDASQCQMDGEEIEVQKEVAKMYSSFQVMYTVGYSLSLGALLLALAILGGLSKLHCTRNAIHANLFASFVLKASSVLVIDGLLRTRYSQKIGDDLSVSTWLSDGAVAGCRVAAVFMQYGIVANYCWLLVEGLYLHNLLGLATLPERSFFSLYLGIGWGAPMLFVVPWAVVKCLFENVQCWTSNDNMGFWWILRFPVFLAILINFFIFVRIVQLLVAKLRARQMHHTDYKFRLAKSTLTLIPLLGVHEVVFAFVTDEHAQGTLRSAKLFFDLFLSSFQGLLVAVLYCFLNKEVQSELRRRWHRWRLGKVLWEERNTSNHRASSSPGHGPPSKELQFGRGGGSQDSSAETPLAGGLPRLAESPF
From the text: (§1) In the presence of the non-specific cAMP/cGMP phosphodiesterase inhibitor, 3-isobutyl-1-methylxanthine (IBMX), accumulating cAMP can be measured in vitro using common detection methods. Thus, it is possible to estimate an in vitro potency (pEC50) for peptides activating each of these receptors using fit dose-response curves for cAMP accumulation.
A cDNA fragment encoding the full-length open reading frame of the cynomolgus monkey GLP-1R (Genebank accession #XM_028847603 was cloned into pcDNA3.1+ for expression in CHO-K1 cells. A cDNA fragment encoding the full-length open reading frame of the human GCGR (Genebank accession #NM_000160 was cloned into pcDNA3.1+ for expression in CHO-K1 cells. A cDNA fragment encoding the full-length open reading frame of the rat GCGR (Genebank accession #NM_12091 was cloned into pcDNA3.1+ for expression in CHO-K1 cells. A cDNA fragment encoding the full-length open reading frame of the cynomolgus monkey GCGR (Genebank accession #XM_005585255 was cloned into pcDNA3.1+ for expression in CHO-K1 cells.
(§2) On day 1, CHO-K1 cells were plated at 1.5 million cells per T75 flask in 90% F12-K media supplemented with 10% FBS. On day 3 cells were transfected with 40 mcg of each expression plasmid using Lipofectamine 2000 transfection reagent. On day 5, cells were dispensed at 1000 cells per well in white 384-well OptiPlates in 5 mcL of assay buffer consisting of 1×HBSS, 5 mM HEPES, 0.5 mM IBMX, and 0.1% casein.
(§3) Peptides were serially diluted 4-fold in assay buffer to final concentrations ranging from 1×10^−9 M to 9.5×10^−16 M. Two assay controls consisting of 50 mcM forskolin (cAMP system maximum) or assay buffer only (cAMP system minimum) were also prepared. Five microliters of each peptide-concentration, or assay control, was added to triplicate wells and incubated for thirty minutes at room temperature. During this incubation step a 4× europium labelled cAMP tracer solution and a 4× Ulight®-anti-cAMP solution (consisting of an anti-cAMP monoclonal antibody labelled with Ulight™ dye) was prepared according to the manufacturer's protocol (PerkinElmer LANCE Ultra cAMP kit). Following this incubation, 5 mcL europium labelled cAMP and 5 mcL Ulight anti-cAMP antibody was added to each well. The plate was covered to prevent evaporation and incubated for 60 minutes at room temperature in the dark. Plates were read on an Envision fluorescent plate reader (PerkinElmer).
(§4) Test values were first normalized to the system maximum and system minimum averaged values in Excel using the formula: (test value−system min average)/(system max average -system min average)*100. Normalized test values represent a baseline corrected percentage of the system maximum cAMP response induced by forskolin. Data from up to 3 replicate tests were analyzed for each peptide. Potency values were estimated using GraphPad Prism software (v7.04) by fitting data to a 4-parameter logistic curve model: Y=Bottom+(Top−Bottom)/(1+10^((LogEC50−X))). The Hill slope was constrained to 1.0. EC50 values were converted to pEC50 values using the formula: pEC50=−Log (EC50).

[2] = target: T2, human GLP-1 receptor (GLP-1R) (Homo sapiens, UniProt P43220); experiment: cAMP accumulation assay, CHO-K1 cells stably expressing human GLP-1R; format: cell-based; settings: cAMP accumulation, mean pEC50, Table 10
T2 construct: expressed in transfected cells
T2 sequence (P43220 24-463): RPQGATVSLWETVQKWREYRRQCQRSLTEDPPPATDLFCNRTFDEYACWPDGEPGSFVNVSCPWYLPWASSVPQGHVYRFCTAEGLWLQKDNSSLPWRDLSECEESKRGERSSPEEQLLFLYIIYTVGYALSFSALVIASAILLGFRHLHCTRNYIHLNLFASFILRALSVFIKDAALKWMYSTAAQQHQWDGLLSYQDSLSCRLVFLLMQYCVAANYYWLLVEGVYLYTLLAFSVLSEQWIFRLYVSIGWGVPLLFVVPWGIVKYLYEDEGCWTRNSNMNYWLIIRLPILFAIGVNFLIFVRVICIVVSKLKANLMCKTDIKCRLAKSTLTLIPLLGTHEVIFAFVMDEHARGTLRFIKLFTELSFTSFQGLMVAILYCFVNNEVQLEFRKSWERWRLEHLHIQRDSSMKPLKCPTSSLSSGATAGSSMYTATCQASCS
Experimental: as §1
CHO-K1 cells stably expressing human GLP-1R (Genebank accession #NM_002062) were grown in 90% F12-K media supplemented with 10% FBS and 250 μg/ml G418.
as §2, §3, §4

Compound | pEC50 [1] | pEC50 [2]
CC(C)C[C@H](NC(=O)[C@H](Cc1ccc(O)cc1)NC(=O)[C@H](CCCCN)NC(=O)[C@H](CO)NC(=O)[C@H](Cc1ccc(O)cc1)NC(=O)[C@H](CC(=O)O)NC(=O)[C@H](CO)NC(=O)[C@@H](NC(=O)[C@H](Cc1ccccc1)NC(=O)[C@@H](NC(=O)CNC(=O)[C@H](Cc1c[nH]cn1)NC(=O)[C@H](CO)NC(=O)[C@@H](N)Cc1ccc(O)cc1)[C@@H](C)O)[C@@H](C)O)C(=O)N[C@@H](CCCCNC(=O)CC[C@H](NC(=O)CC[C@H](NC(=O)COCCOCCNC(=O)CCCCCCCCCCCCCCCCCCC(=O)O)C(=O)O)C(=O)O)C(=O)NC(C)(C)C(=O)N[C@@H](CCCCN)C(=O)N[C@@H](Cc1ccc(O)cc1)C(=O)N[C@@H](C)C(=O)N[C@@H](CCC(N)=O)C(=O)N[C@@H](CCC(=O)O)C(=O)N[C@@H](Cc1ccccc1)C(=O)N[C@H](C(=O)NC(C)(C)C(=O)N[C@@H](Cc1c[nH]c2ccccc12)C(=O)N[C@@H](CC(C)C)C(=O)N[C@@H](CCC(=O)O)C(=O)N[C@@H](CC(=O)O)C(=O)N[C@@H](CCC(=O)O)C(=O)N1CCC[C@H]1C(=O)N[C@@H](CO)C(=O)N[C@@H](CO)C(=O)NCC(=O)N[C@@H](C)C(=O)N1CCC[C@H]1C(=O)N1CCC[C@H]1C(=O)N1CCC[C@H]1C(=O)N[C@@H](CO)C(=O)O)C(C)C [Compound A1] (H-YSHGTFTSDYSKYLK([γGlu-γGlu-AEEA-C20 diacid])[Aib]KYAQEFV[Aib]WLEDEPSSGAPPPS-OH) | 11.50 | –
CC(C)C[C@H](NC(=O)[C@H](Cc1ccc(O)cc1)NC(=O)[C@H](CCCCN)NC(=O)[C@H](CO)NC(=O)[C@H](Cc1ccc(O)cc1)NC(=O)[C@H](CC(=O)O)NC(=O)[C@H](CO)NC(=O)[C@@H](NC(=O)[C@H](Cc1ccccc1)NC(=O)[C@@H](NC(=O)CNC(=O)[C@H](Cc1c[nH]cn1)NC(=O)[C@H](CO)NC(=O)[C@@H](N)Cc1ccc(O)cc1)[C@@H](C)O)[C@@H](C)O)C(=O)N[C@@H](CC(=O)O)C(=O)NC(C)(C)C(=O)N[C@@H](CCCCN)C(=O)N[C@@H](CCCCNC(=O)CC[C@H](NC(=O)CC[C@H](NC(=O)COCCOCCNC(=O)CCCCCCCCCCCCCCCCCCC(=O)O)C(=O)O)C(=O)O)C(=O)N[C@@H](C)C(=O)N[C@@H](CCC(N)=O)C(=O)N[C@@H](CCC(=O)O)C(=O)N[C@@H](Cc1ccccc1)C(=O)N[C@H](C(=O)NC(C)(C)C(=O)N[C@@H](Cc1c[nH]c2ccccc12)C(=O)N[C@@H](CC(C)C)C(=O)N[C@@H](CCC(=O)O)C(=O)N[C@@H](CC(=O)O)C(=O)N[C@@H](CCC(=O)O)C(=O)N1CCC[C@H]1C(=O)N[C@@H](CO)C(=O)N[C@@H](CO)C(=O)NCC(=O)N[C@@H](C)C(=O)N1CCC[C@H]1C(=O)N1CCC[C@H]1C(=O)N1CCC[C@H]1C(=O)N[C@@H](CO)C(=O)O)C(C)C [Compound A4] (H-YSHGTFTSDYSKYLD[Aib]KK([γGlu-γGlu-AEEA-C20 diacid])AQEFV[Aib]WLEDEPSSGAPPPS-OH; N-terminus assumed) | 11.70 | –
CC(C)C[C@H](NC(=O)[C@H](Cc1ccc(O)cc1)NC(=O)[C@H](CCCCN)NC(=O)[C@H](CO)NC(=O)[C@H](Cc1ccc(O)cc1)NC(=O)[C@H](CC(=O)O)NC(=O)[C@H](CO)NC(=O)[C@@H](NC(=O)[C@H](Cc1ccccc1)NC(=O)[C@@H](NC(=O)CNC(=O)[C@H](Cc1c[nH]cn1)NC(=O)[C@H](CO)NC(=O)[C@@H](N)Cc1ccc(O)cc1)[C@@H](C)O)[C@@H](C)O)C(=O)N[C@@H](CC(=O)O)C(=O)NC(C)(C)C(=O)N[C@@H](CCCCN)C(=O)N[C@@H](Cc1ccc(O)cc1)C(=O)N[C@@H](C)C(=O)N[C@@H](CCCCNC(=O)CC[C@H](NC(=O)CC[C@H](NC(=O)COCCOCCNC(=O)CCCCCCCCCCCCCCCCCCC(=O)O)C(=O)O)C(=O)O)C(=O)N[C@@H](CCC(=O)O)C(=O)N[C@@H](Cc1ccccc1)C(=O)N[C@H](C(=O)NC(C)(C)C(=O)N[C@@H](Cc1c[nH]c2ccccc12)C(=O)N[C@@H](CC(C)C)C(=O)N[C@@H](CCC(=O)O)C(=O)N[C@@H](CC(=O)O)C(=O)N[C@@H](CCC(=O)O)C(=O)N1CCC[C@H]1C(=O)N[C@@H](CO)C(=O)N[C@@H](CO)C(=O)NCC(=O)N[C@@H](C)C(=O)N1CCC[C@H]1C(=O)N1CCC[C@H]1C(=O)N1CCC[C@H]1C(=O)N[C@@H](CO)C(=O)O)C(C)C [Compound A5] (H-YSHGTFTSDYSKYLD[Aib]KYAK([γGlu-γGlu-AEEA-C20 diacid])EFV[Aib]WLEDEPSSGAPPPS-OH; N-terminus assumed) | 11.60 | –
CC(C)C[C@H](NC(=O)[C@H](Cc1ccc(O)cc1)NC(=O)[C@H](CCCCN)NC(=O)[C@H](CO)NC(=O)[C@H](Cc1ccc(O)cc1)NC(=O)[C@H](CC(=O)O)NC(=O)[C@H](CO)NC(=O)[C@@H](NC(=O)[C@H](Cc1ccccc1)NC(=O)[C@@H](NC(=O)CNC(=O)[C@H](Cc1c[nH]cn1)NC(=O)[C@H](CO)NC(=O)[C@@H](N)Cc1ccc(O)cc1)[C@@H](C)O)[C@@H](C)O)C(=O)N[C@@H](CC(=O)O)C(=O)N[C@@H](CCCCNC(=O)CC[C@H](NC(=O)CC[C@H](NC(=O)COCCOCCNC(=O)CCCCCCCCCCCCCCCCCCC(=O)O)C(=O)O)C(=O)O)C(=O)N[C@@H](CCCCN)C(=O)N[C@@H](Cc1ccc(O)cc1)C(=O)N[C@@H](C)C(=O)N[C@@H](CO)C(=O)N[C@@H](CCC(=O)O)C(=O)N[C@@H](Cc1ccccc1)C(=O)N[C@H](C(=O)NC(C)(C)C(=O)N[C@@H](Cc1c[nH]c2ccccc12)C(=O)N[C@@H](CC(C)C)C(=O)N[C@@H](CCC(=O)O)C(=O)N[C@@H](CO)C(=O)N[C@@H](CCC(=O)O)C(=O)N1CCC[C@H]1C(=O)N[C@@H](CO)C(=O)N[C@@H](CO)C(=O)NCC(=O)N[C@@H](C)C(=O)N1CCC[C@H]1C(=O)N1CCC[C@H]1C(=O)N1CCC[C@H]1C(=O)N[C@@H](CO)C(=O)O)C(C)C [Compound A24] (H-YSHGTFTSDYSKYLDK([γGlu-γGlu-AEEA-C20 diacid])KYASEFV[Aib]WLESEPSSGAPPPS-OH; N-terminus assumed) | – | < 9.00
CC(C)C[C@@H]1NC(=O)[C@H](Cc2c[nH]c3ccccc23)NC(=O)[C@@H](NC(=O)[C@@H](NC(=O)[C@H](Cc2ccccc2)NC(=O)[C@H](CCCCNC(=O)CC[C@H](NC(=O)CC[C@H](NC(=O)COCCOCCNC(=O)CCCCCCCCCCCCCCCCCCC(=O)O)C(=O)O)C(=O)O)NC(=O)[C@H](CCC(N)=O)NC(=O)[C@H](C)NC(=O)[C@H](Cc2ccc(O)cc2)NC(=O)[C@H](CCCCN)NC(=O)C(C)(C)NC(=O)[C@H](CC(=O)O)NC(=O)[C@H](CC(C)C)NC(=O)[C@H](Cc2ccc(O)cc2)NC(=O)[C@H](CCCCN)NC(=O)[C@H](CO)NC(=O)[C@H](Cc2ccc(O)cc2)NC(=O)[C@H](CC(=O)O)NC(=O)[C@H](CO)NC(=O)[C@@H](NC(=O)[C@H](Cc2ccccc2)NC(=O)[C@@H](NC(=O)CNC(=O)[C@H](Cc2c[nH]cn2)NC(=O)[C@H](CO)NC(=O)[C@@H](N)Cc2ccc(O)cc2)[C@@H](C)O)[C@@H](C)O)C(C)C)CCCCNC(=O)C[C@@H](C(=O)N[C@@H](CCC(=O)O)C(=O)N2CCC[C@H]2C(=O)N[C@@H](CO)C(=O)N[C@@H](CO)C(=O)NCC(=O)N[C@@H](C)C(=O)N2CCC[C@H]2C(=O)N2CCC[C@H]2C(=O)N2CCC[C@H]2C(=O)N[C@@H](CO)C(=O)O)NC(=O)[C@H](CCC(=O)O)NC1=O [Compound A30] (H-YSHGTFTSDYSKYLD[Aib]KYAQK([γGlu-γGlu-AEEA-C20 diacid])FVKWLEDEPSSGAPPPS-OH; lactam 24-28) | – | < 9.00
